ChEMBL document CHEMBL1201862, “PubChem BioAssay data set” (2004)
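Dose response: 5 concentrations. Exposure: 48 h. Format: 96-well plates. Endpoint: linear interpolation; highest concentration if not reached. Here, GI50 denotes the concentration required for 50% inhibition of growth.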 Active and inactive are the calls of the source. Cut-off read from the data, not from the text of the source: active = GI50 up to about 1.1 µM and inactive = higher.

What was measured:
Test in all cases: NCI anticancer screen, dose series, 48 h
UO-31 = tested on: UO-31
A498 = tested on: A498
TK-10 = tested on: TK-10
PC-3 = tested on: PC-3
COLO 205 = tested on: COLO 205
UACC-257 = tested on: UACC-257
DU-145 = tested on: DU-145
CAKI-1 = tested on: CAKI-1
SNB-75 = tested on: SNB-75
LOX IMVI = tested on: LOX IMVI
SK-MEL-28 = tested on: SK-MEL-28
HT-29 = tested on: HT-29
RPMI-8226 = tested on: RPMI-8226
SNB-19 = tested on: SNB-19
NCI-H460 = tested on: NCI-H460
HCT-116 = tested on: HCT-116
SF-268 = tested on: SF-268
KM12 = tested on: KM12
A549 = tested on: A549
SK-OV-3 = tested on: SK-OV-3

Measured: GI50

CN(C)CCNC1=Nc2ccccc2C(=S)N2CSCC12 (stereo not given)
inactive: UO-31 58.2 µM | A498 > 100 µM | TK-10 > 100 µM | PC-3 > 100 µM | COLO 205 > 100 µM | UACC-257 > 100 µM | DU-145 74.8 µM | CAKI-1 > 100 µM | SNB-75 > 100 µM | LOX IMVI > 100 µM | SK-MEL-28 > 100 µM | HT-29 > 100 µM | RPMI-8226 > 100 µM | SNB-19 > 100 µM | NCI-H460 > 100 µM | HCT-116 > 100 µM | SF-268 > 100 µM | KM12 > 100 µM | A549 > 100 µM | SK-OV-3 > 100 µM

C/C(=N\NS(=O)(=O)c1ccc(C)cc1)P(=O)(O)O
inactive: UO-31 > 100 µM | A498 > 100 µM | TK-10 > 100 µM | PC-3 > 100 µM | COLO 205 > 100 µM | UACC-257 > 100 µM | DU-145 > 100 µM | CAKI-1 > 100 µM | SNB-75 > 100 µM | LOX IMVI > 100 µM | SK-MEL-28 > 100 µM | HT-29 > 100 µM | RPMI-8226 > 100 µM | SNB-19 > 100 µM | NCI-H460 > 100 µM | HCT-116 > 100 µM | SF-268 > 100 µM | KM12 > 100 µM | A549 > 100 µM | SK-OV-3 > 100 µM

CC(C(O)c1ccccc1)C(O)(C(F)(F)F)C(F)(F)F (stereo not given)
inactive: UO-31 > 100 µM | A498 > 100 µM | TK-10 > 100 µM | PC-3 > 100 µM | COLO 205 > 100 µM | UACC-257 > 100 µM | DU-145 > 100 µM | CAKI-1 > 100 µM | SNB-75 65.3 µM | LOX IMVI > 100 µM | SK-MEL-28 > 100 µM | HT-29 > 100 µM | RPMI-8226 > 100 µM | SNB-19 > 100 µM | NCI-H460 > 100 µM | HCT-116 > 100 µM | SF-268 > 100 µM | KM12 > 100 µM | A549 > 100 µM | SK-OV-3 > 100 µM

CN(C)Cc1cc(/N=N/c2c(Cl)cccc2Cl)ccc1O
inactive: UO-31 36 µM | A498 55.5 µM | TK-10 > 100 µM | PC-3 > 100 µM | COLO 205 > 100 µM | UACC-257 79.6 µM | DU-145 8.49 µM | CAKI-1 > 100 µM | SNB-75 > 100 µM | LOX IMVI 74.3 µM | SK-MEL-28 71.8 µM | HT-29 50.4 µM | RPMI-8226 74.8 µM | SNB-19 > 100 µM | NCI-H460 75 µM | HCT-116 > 100 µM | SF-268 > 100 µM | KM12 > 100 µM | A549 61.5 µM | SK-OV-3 > 100 µM
